Where a SMILES comes first, the peptide text is derived from it. Bridges are numbered along the chain shown (N, C = ends). [ ]: non-standard residue; d: D form. The star is where a group is joined. ξ: configuration not given here. Phe(4-COOH) = N[C@@H](Cc1ccc(C(=O)O)cc1)C(=O)O; Bip = N[C@@H](Cc1ccc(-c2ccccc2)cc1)C(=O)O; Phe(3-Me) = Cc1cccc(C[C@H](N)C(=O)O)c1; Cha = N[C@@H](CC1CCCCC1)C(=O)O; Thr(3ξ) = CC(O)[C@H](N)C(=O)O; Carboxymethyl = O=C(O)C*; NMeA = CN[C@@H](C)C(=O)O; Aun = NCCCCCCCCCCC(=O)O; Dab = NCC[C@H](N)C(=O)O; AEEA = NCCOCCOCC(=O)O
target: T1, PD-1/PD-L1 interaction (PE-labeled human PD-L1-Ig binding to Jurkat cell line over-expressing human PD-1) (Homo sapiens, UniProt Q15116); test: Jurkat-PD-1 Cell Binding High-Content Screening Assay (CBA); details: Jurkat-hPD-1 cells, PE-labeled PD-L1-Ig 20 nM final; read-out: Jurkat HPD1 PDL1 IC50
T1 construct: expressed in transfected cells; host or cells: Jurkat
Method in brief: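 Compound is added first to the PD-1-expressing Jurkat cells and held 2 h at 37 °C in serum-containing DMEM. The fluorescent PD-L1 fusion follows at 20 nM final for 1 h. Fixed, Hoechst-stained cells are then imaged for bound label.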

T1 sequence (Q15116 25-288): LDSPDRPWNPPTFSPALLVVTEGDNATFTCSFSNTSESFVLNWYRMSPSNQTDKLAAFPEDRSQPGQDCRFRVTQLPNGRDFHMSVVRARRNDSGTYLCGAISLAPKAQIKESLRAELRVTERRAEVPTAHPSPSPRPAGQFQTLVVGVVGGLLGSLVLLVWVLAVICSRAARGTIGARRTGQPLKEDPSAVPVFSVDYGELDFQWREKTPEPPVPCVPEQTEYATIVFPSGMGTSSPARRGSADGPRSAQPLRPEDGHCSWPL

First: CC(=O)NCCCC[C@@H]1NC(=O)[C@H](Cc2ccc(-c3ccccc3)cc2)NC(=O)[C@H](CC(C)C)NC(=O)[C@H](Cc2c[nH]c3ccccc23)NC(=O)[C@H](CC(=O)O)NC(=O)[C@H](Cc2ccc(C(=O)O)cc2)NC(=O)[C@H](Cc2ccc(OCC(=O)O)cc2)NC(=O)CSC[C@@H](C(=O)NCCOCCOCC(=O)NCCCCCCCCCCC(=O)O)NC(=O)[C@H](CO)NC(=O)[C@H](C(C)C)NC(=O)[C@H](CC2CCCCC2)NC(=O)[C@H](CCN)NC(=O)[C@@H](CC(C)C)NC(=O)[C@H](C)N(C)C1=O [Example 2229] ({CH2CO}-Y(Carboxymethyl)[Phe(4-COOH)]DWL[Bip]K(Ac)[NMeA][dL][Dab][Cha]VSC[AEEA][Aun]-OH; thioether N-14)
Second: CC(=O)NCCCC[C@@H]1NC(=O)[C@H](C(C)C)NC(=O)[C@H](CC2CCCCC2)NC(=O)[C@H](CCN)NC(=O)[C@@H](CC(C)C)NC(=O)[C@H](C)N(C)C(=O)[C@H](CCC(N)=O)NC(=O)[C@H](Cc2ccc(-c3ccccc3)cc2)NC(=O)[C@H](CC(C)C)NC(=O)[C@H](Cc2cccc(C)c2)NC(=O)[C@H](CC(=O)O)NC(=O)[C@H](Cc2ccc(C(=O)O)cc2)NC(=O)[C@H](Cc2ccc(OCC(=O)O)cc2)NC(=O)CSC[C@@H](C(=O)NCCOCCOCC(=O)NCCCCCCCCCCC(=O)O)NC1=O [Example 2230] ({CH2CO}-Y(Carboxymethyl)[Phe(4-COOH)]D[Phe(3-Me)]L[Bip]Q[NMeA][dL][Dab][Cha]VK(Ac)C[AEEA][Aun]-OH; thioether N-14)
The IC50 of the first is 2.7-fold lower: 4.8 nM for the first, 13 nM for the second. The first is the more potent here.

Going from `Cc1cccc(C[C@@H]2NC(=O)[C@H](CC(=O)O)NC(=O)[C@H](Cc3ccc(C(=O)O)cc3)NC(=O)[C@H](Cc3ccc(OCC(=O)O)cc3)NC(=O)CSC[C@@H](C(=O)NCCOCCOCC(=O)NCCCCCCCCCCC(=O)O)NC(=O)[C@H](CCCCN)NC(=O)[C@H](C(C)C)NC(=O)[C@H](CC3CCCCC3)NC(=O)[C@H](CCN)NC(=O)[C@@H](CC(C)C)NC(=O)[C@H](C)N(C)C(=O)[C@H](C(C)C)NC(=O)[C@H](Cc3ccc(-c4ccccc4)cc3)NC(=O)[C@H](CC(C)C)NC2=O)c1` [Example 2231] ({CH2CO}-Y(Carboxymethyl)[Phe(4-COOH)]D[Phe(3-Me)]L[Bip]V[NMeA][dL][Dab][Cha]VKC[AEEA][Aun]-OH; thioether N-14) to `CC(C)C[C@@H]1NC(=O)[C@H](Cc2c[nH]c3ccccc23)NC(=O)[C@H](CC(=O)O)NC(=O)[C@H](Cc2ccc(C(=O)O)cc2)NC(=O)[C@H](Cc2ccc(OCC(=O)O)cc2)NC(=O)CSC[C@@H](C(=O)N[C@H](CC(N)=O)C(=O)NCCCCCCCCCCC(=O)O)NC(=O)[C@H](CO)NC(=O)[C@H](C(C)C)NC(=O)[C@H](CC2CCCCC2)NC(=O)[C@H](CCN)NC(=O)[C@@H](CC(C)C)NC(=O)[C@H](C)N(C)C(=O)[C@H](C(C)C)NC(=O)[C@H](Cc2ccc(-c3ccccc3)cc2)NC1=O` [Example 2234] ({CH2CO}-Y(Carboxymethyl)[Phe(4-COOH)]DWL[Bip]V[NMeA][dL][Dab][Cha]VSC[dN][Aun]-OH; thioether N-14), the IC50 rises from 3.3 nM to 13.4 nM (4.1-fold). The first is the more potent here.

Work on `Cc1cccc(C[C@@H]2NC(=O)[C@H](CC(=O)O)NC(=O)[C@H](Cc3ccc(OCC(=O)O)cc3)NC(=O)[C@H](CCCNC(=N)N)NC(=O)CSC[C@@H](C(=O)N[C@@H](CCN)C(=O)NCCCCCCCCCCC(=O)O)NC(=O)[C@H](C(C)O)NC(=O)[C@H](C(C)C)NC(=O)[C@H](CC3CCCCC3)NC(=O)[C@H](CCN)NC(=O)[C@@H](CC(C)C)NC(=O)[C@H](C)N(C)C(=O)[C@H](CCC(N)=O)NC(=O)[C@H](Cc3ccc(-c4ccccc4)cc3)NC(=O)[C@H](C(C)C)NC2=O)c1` (stereo partly drawn) [Example 2233] ({CH2CO}-RY(Carboxymethyl)D[Phe(3-Me)]V[Bip]Q[NMeA][dL][Dab][Cha]V[Thr(3ξ)]C[Dab][Aun]-OH; thioether N-14) yielded an IC50 of 9.7 nM.

Reference: patent publication US20260070945A1, “MACROCYCLIC IMMUNOMODULATORS” (Bristol-Myers Squibb Company, priority 2022, published 2026)
